The text below walks through data of patent US10350257B2, “Pharmaceutical composition containing complex extract of Crataegi fructus and Citri pericarpium as an active ingredient for treating or preventing obesity or lipid-related metabolic diseases” (NEUMED, priority 2012, dated 2019).

Marks after values point to notes of the source that are not given here.

Assay [1] relates to diet-induced obesity (DIO) white rat models. As to the kind of experiment: Body weight gain in high-fat diet obese animal models (8 weeks). The assay is classed as in vivo, Sprague-Dawley male white rats. As to conditions: oral twice a day for 8 weeks, extracts 100 mg/kg, HCA 390 mg/kg. How it is done:
(§1) Animal experiments were performed on Sprague-Dawley ([…] BIO Korea) male white rats weighing 80 to 100 g. 3. Selection of Experimental Groups • Normal group (AIN-93G, Normal diet+fed with secondary distilled water); • Control group (60% Kcal high-fat diet+fed with secondary distilled water); • Positive control group (60% Kcal high-fat diet+administered with 390 mg/kg of […] Fructus extract-administered group (high-fat diet+administered with 100 mg/kg of […] Fructus extract of Comparative Example 1); • Citri Pericarpium extract-administered group (high-fat diet+administered with 100 mg/kg of the Citri Pericarpium extract of Comparative Example 2); and • Complex extract-administered group (high-fat diet+administered with 100 mg/kg of the complex extract of Example 1 or 2). The temperature was 22±2° C., the relative humidity was 50±10%, and the dark-light cycle (light on at 07:00 light off at 19:00) was controlled with fluorescent lighting. […] Moreover, all the experimental groups were sacrificed after 8 weeks to collect blood samples, serums were separated from the blood samples, and the blood triglyceride (mg/dL) and the total cholesterol (mg/dL) were analyzed using a biochemical analyzer ([…], USA).

The conditions of assay [2]: 1,500 mg HCA daily, 12-week clinical trial; cited from earlier work.
The subject of assay [3] is diet-induced obesity (DIO) white rat models. Briefly: Blood triglyceride and total cholesterol in serum of high-fat diet obese animal models after 8 weeks. The assay is classed as in vivo, Sprague-Dawley male white rats. As to conditions: serum after 8 weeks; high-fat diet rats; extracts 100 mg/kg, HCA 390 mg/kg oral twice a day. How it is done: as §1
The conditions of assay [4]: about 3 g daily, after 3 months, clinical trials; cited from earlier work.

In assay [1] (60% Kcal high-fat diet rats, mean±SD), `O=C(O)CC(O)(C(=O)O)C(O)C(=O)O` (stereo not shown) [HCA, hydroxycitrate] registered a Body weight gain of 333.2 ± 12.2 g. The “Reduction in rate of body weight gain” value in assay [1] (vs high-fat diet control group) is on record as 7.3* %. Further, in assay [2], the “Weight loss effect compared to the placebo group” value is on record as “no weight loss effect”. In assay [3], this compound came in with a Total cholesterol of 59.8 ± 11.2 mg/dL and a Total triglyceride of 134.2 ± 21.3 mg/dL.

Regarding conjugated linoleic acid, in assay [4], the “Average body weight lost” value is reported as 2.5 kg and the Body fat reduced was 15 to 20%.
